“And” between values parts separate entries of the source, which are not always exact repeats. Identical values can stand only once.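 1) Cells in 96-well plates. 2) Compound, 48 h, 5 concentrations. 3) Linear interpolation between surrounding doses. 4) Unreached endpoint = highest concentration. GI50 marks 50% less growth. TGI: concentration producing complete growth inhibition.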

This test concerns MDA-MB-468 breast. As to the kind of experiment: NCI-60 cell line screen, 48 h.
With `COc1cc(/C=N/NC(=O)c2cnn3c2NC(c2ccccc2)C3)ccc1Oc1ccccc1` (stereo not given), the GI50 is 0.648 µM and the TGI came out at 5.72 µM.

`COc1cccc2c1C(=O)c1c(O)c3c(c(O)c1C2=O)C[C@@](O)(C(=O)CO)C[C@@H]3O[C@H]1C[C@H](N)[C@@H](O)[C@H](C)O1`: the GI50 is 0.094 µM and the TGI came out at 0.304 µM.

Take `COc1cc(Cl)cc(-c2nn(-c3cccc(NC(=O)Nc4cc(C(F)(F)F)cc(C(F)(F)F)c4)c3)cc2-c2ccncc2)c1`: the GI50 is 0.349 µM and the TGI amounted to 3.15 µM.

`COC(=O)C1CCCN1C(=O)[C@@H]1CCCN1C(=O)[C@H](Cc1c[nH]c2ccccc12)NC(=S)Nc1cc(C(F)(F)F)cc(C(F)(F)F)c1` (stereo not given in full): the GI50 was 1.78 µM and the TGI is 4.64 µM.

`CCN1Cc2c(ccc(F)c2C#N)O[C@@H](C)CNC(=O)c2c(N)nn3ccc1nc23`: the GI50 is 12.5 µM and the TGI stood at 34.3 µM.

Take `Clc1ccc2nnnn2n1`: the GI50 was 5.06 µM and the TGI came to 25.1 µM.

Take `COc1ccc(NC(=O)COCCOCCNC[C@@H]2C(=O)O[C@H]3[C@H]2CC/C(COC(=O)OC/C2=C/CC[C@@]4(C)O[C@H]4[C@H]4OC(=O)[C@@H](CN(C)C)[C@@H]4CC2)=C\CC[C@@]2(C)O[C@@H]32)c(O)c1C(N)=O`: the GI50 is 3.04 µM and the TGI is 10.8 µM.

Take `N#CC1=C(N)Oc2c(sc3c(Br)cccc23)C1c1ccc(Br)cc1` (stereo not given): the GI50 was 0.763 µM and the TGI was determined as 11.4 µM.

Regarding `C=C1C(=O)O[C@H]2[C@H]1CCC(/C=N/c1ncc(Br)cc1N)=C\CC[C@@]1(C)O[C@@H]21`, the GI50 was 1.2 µM and the TGI was 3.91 µM.

`CCN1C(=O)N(c2ccccc2)C2NC(=S)N(/N=C/C=C/c3ccccc3)C21` (stereo not given): the GI50 is 0.347 µM and the TGI is above 100 µM.

Take `COc1cc(NC(=O)CSc2nc3ccc(C)cc3c(=O)n2Cc2ccccc2)cc(OC)c1OC`: the GI50 is 4.11 µM and the TGI amounted to 68.1 µM.

For the compound `COc1ccc(S(=O)(=O)Nc2cc(/C=C\c3cc(OC)c(OC)c(OC)c3)ccc2OC)cc1`, the GI50 was 0.168 µM and the TGI was above 100 µM.

In the case of `COc1cc2c(cc1OCCCCCOc1ccc(-n3c(C)nc4ccccc4c3=O)cc1)N=C[C@@H]1CCCN1C2=O`, the GI50 was 0.168 µM and the TGI was found to be 0.462 µM.

With `CC(=C(c1ccc(OCCN2CCCC2)cc1)c1ccc(OCCN2CCCC2)cc1)c1ccc(Cl)cc1`, the GI50 was 2.37 µM and the TGI came out at 5.01 µM.

`COc1cccc(OCCCN)c1-c1cc(Nc2cnc(C#N)cn2)n[nH]1`: the GI50 is 0.0407 µM and the TGI turned out to be 2.04 µM.

With `CCCCCCCCCCC(C(O)c1ccccc1)N1CCCCC1` (stereo not given), the GI50 was 1.58 µM and the TGI was found to be 3.09 µM.

For the compound `Nc1nc(N)c2c(n1)NC(c1ccc(F)cc1)C1CCc3ccccc3C1=N2` (stereo not given), the GI50 is 1.43 µM and the TGI is 6.7 µM.

As to `COc1ccc(/C=C(\C#N)n2nnc3ccccc32)cc1`, the GI50 was 0.272 µM and the TGI was found to be 4.1 µM.

As for `CC1(O)CC(c2nc(-c3ccc4ccc(-c5ccccc5)nc4c3)c3c(N)nccn23)C1` (stereo not given), the GI50 was 3.02 µM and 2.9 µM; the TGI was 12.8 µM and > 10 µM.

Take `O=C(Nc1ccc2[nH]c(=S)sc2c1)Nc1ccccc1F`: the GI50 was 17.7 µM and the TGI was above 100 µM.

Regarding `N#Cc1c(-c2cccs2)cc(-c2cnccn2)nc1SCC(=O)N/N=C/c1ccccc1`, the GI50 is 3.9 µM and the TGI came out at 13.9 µM.

In the case of `COC(=O)CCC1CCC(c2cc(F)ccc2F)(S(=O)(=O)c2ccc(Cl)cc2)CC1` (stereo not given), the GI50 was 16.3 µM and the TGI was above 100 µM.

Take `CN(C)CC1C(=O)O[C@H]2[C@H]1CC/C(COC(=O)c1cc3ccccc3[nH]1)=C\CC[C@@]1(C)O[C@@H]21` (stereo not given in full): the GI50 was 1.44 µM and the TGI turned out to be 3.14 µM.

Take `CC(C)COCC(CN(Cc1ccccc1)c1ccccc1)N1CCCC1` (stereo not given): the GI50 was 1.82 µM and the TGI was found to be 6.56 µM.

Turning to `O=C(c1ccccc1)C(Br)C(Br)c1cccc([N+](=O)[O-])c1` (stereo not given), the GI50 is 1.47 µM and the TGI amounted to 3.08 µM.

The values above are taken from PubChem BioAssay (NCI).
